Reference: patent US20190054109A1, “An antiviral composition and a method for application thereof” (ALLA CHEM, LLC, priority 2017, published 2019)
In brackets after ≈: the same amount, converted by molar mass. Entries after “also recorded” stand apart in the source; their conditions may differ. Read-outs that look alike come from different tables or passages of the source.

Experiments:
[1] = Kinetic solubility (MultiScreen Solubility filter plate, UV); type: physicochemical; conditions: aqueous buffer with 2% DMSO, kinetic from dmso stock, 260 nm
Procedure: The tested compound was dissolved in DMSO to reach a 10-mM concentration and then poured into an aqueous solvent (a phosphate buffer, water, or universal buffers of different pH values) to bring the concentration down to 200 μM. The resulting solution placed in a 96-well filter plate (Millipore's MultiScreen Solubility Filter Plate) was incubated for an hour at room temperature on a shaker, and the residue was filtered off in vacuo. The absorption spectrum of the compound was recorded on a spectrophotometer in a range of 240-400 nm with a 10-nm increment. […] The range of estimated concentrations was 3-200 μM. The test procedure was performed in duplicate.
Six standard samples with concentrations of 0, 3.125, 12.5, 50, 100, and 200 μM were prepared in the wells of a UV 96-well plate by adding 4 μl of corresponding 50× stock solutions in DMSO to 196 μl of a buffer comprising 40% acetonitrile. The concentration of DMSO in all points was constant and equal to 2% (v/v).
To plot calibration curves, the optical spectrum of the UV plate was recorded in a wavelength range of 250 400 nm with a 10-nm increment. Based on the spectral data for each compound, wavelengths were selected to meet the following criteria:
For minimum compound concentration, OD>0.1 (AU);
For maximum compound concentration, OD<2.0.
For each compound, a calibration curve was plotted with OD at selected wavelength as a function of concentration.
Solubility was evaluated in a MultiScreen Solubility (Millipore Corp.) filter plate as follows:
Into each well of the MultiScreen Solubility filter plate, 196 μl of a buffer (without acetonitrile) and 4 μl of a 10-mM compound in DMSO or 4 μl of DMSO (for a blank matrix) were added. The plate was incubated for one hour on a shaker (400 rpm) at room temperature.
The resulting solutions were filtered off through the filter plate by means of vacuum (10″ Hg) into a polypropylene plate with a U-shaped bottom.
From the U-bottom plate, the filtrate (120 μl/well) was transferred into a new UV plate, where to acetonitrile (80 μl/well) was added.
The optical density of resulting solutions for a pre-selected wavelength was measured for each compound.
The final compound concentration in the filtrate was computed as follows:
Cfiltrate=(ODλFiltrate-ODλBlank)/Slope×1.67,

[2] = Pharmacokinetics of triphosphate PSI-7409 in rat liver after peroral administration; type: in vivo, Sprague Dawley rats; conditions: comparison of Cmax and AUC24h in rat liver
Procedure: The tested composition was administered at a dose of 50 mg/kg. To this end, compositions were prepared with a concentration of prodrug 1.1 or Sovaldi® of 5.0 mg/ml in a 0.5% solution of hydroxypropyl methylcellulose (HPMC), to which 5% ethanol was added, as follows: to a weighed portion of the prodrug of formula 1.1 or Sovaldi®, an appropriate amount of HPMC was added, and the mixture was triturated dry in a mortar, whereafter a proper quantity of 5% ethanol in distilled water was gradually added portionwise, and the mixture was carefully stirred to obtain a suspension suitable for intragastric administration.
The study was carried out on Sprague Dawley rats. The rats were divided into groups of 6 based on selected time points (1, 2, 4, 6, 8, 10, 12, 16, and 24 h). The rats were weighed, and the volume of compositions comprising the prodrug of formula 1.1 or Sovaldi® was calculated for each animal at a rate of 10 ml/kg. Compositions comprising the prodrug of formula 1.1 or Sovaldi® were administered intragastrically through a feeding tube. […]
Samples were analyzed using an HPLC-MS/MS technique, wherein the HPLC system Agilent 1290 Infinity II was combined with the AB Sciex QTrap 5500 mass spectrometer. […] PSI-7409 and H027-4261 were recorded in MRM mode with ion transitions of 499/159 and 410/150, respectively. […]

`C[C@H](N[P@](=O)(OC[C@H]1O[C@@H](n2ccc(=O)[nH]c2=O)[C@](C)(F)[C@@H]1O)Oc1ccccc1)C(=O)OC1CCC1` [Prodrug 1.1, cyclobutyl (S)-2-{(S)-[(2R,3R,4R,5R)-5-(3,4-dihydro-2,4-dioxo-2H-pyrimidin-1-yl)-3-hydroxy-4-methyl-4-fluoro-tetrahydro-furan-2-ylmethoxy]-phenoxy-phosphorylamino}-propanoate] gave a solubility at 1 h ([1]; pH 2, aqueous buffer, recrystallized from acetic acid, polycrystal, read-out: Solubility at pH 2) of 630 µg/mL (≈ 1160 µM), a solubility at 1 h ([1]; pH 2, aqueous buffer, recrystallized from dimethyl sulfoxide, crystal, read-out: Solubility at pH 2) of 180 µg/mL (≈ 332 µM) and a solubility at 1 h ([1]; pH 2, aqueous buffer, recrystallized from ethanol, polycrystal, read-out: Solubility at pH 2) of 200 µg/mL (≈ 369 µM). The solubility at 1 h ([1]; pH 2, aqueous buffer, recrystallized from ethyl acetate and methyl-tert-butyl ether mixture, polycrystal, read-out: Solubility at pH 2) was 250 µg/mL (≈ 462 µM), the solubility at 1 h ([1]; pH 2, aqueous buffer, recrystallized from ethyl acetate, polycrystal, read-out: Solubility at pH 2) was 220 µg/mL (≈ 406 µM) and the solubility at 1 h ([1]; pH 7, aqueous buffer, recrystallized from acetic acid, polycrystal, read-out: Solubility at pH 7) was 670 µg/mL (≈ 1240 µM). It also gave a solubility at 1 h ([1]; pH 7, aqueous buffer, recrystallized from dimethyl sulfoxide, crystal, read-out: Solubility at pH 7) of 180 µg/mL (≈ 332 µM), a solubility at 1 h ([1]; pH 7, aqueous buffer, recrystallized from ethanol, polycrystal, read-out: Solubility at pH 7) of 200 µg/mL (≈ 369 µM) and a solubility at 1 h ([1]; pH 7, aqueous buffer, recrystallized from ethyl acetate and methyl-tert-butyl ether mixture, polycrystal, read-out: Solubility at pH 7) of 240 µg/mL (≈ 443 µM). For the same compound, the solubility at 1 h ([1]; pH 7, aqueous buffer, recrystallized from ethyl acetate, polycrystal, read-out: Solubility at pH 7) was 220 µg/mL (≈ 406 µM) and the “effectiveness of liver metabolism into triphosphate PSI-7409 relative to Sovaldi” value [2] was “almost twice more effective; also recorded: almost two times more effectively”.
